In patent publication US8178506B2, “Oligomeric compounds and compositions for use in modulation of small non-coding RNAs” (Regulus Therapeutics Inc., priority 2003, dated 2012):
In the oligonucleotide strings, read from the 5' end, every base follows the letter of its sugar. An asterisk marks phosphorothioate; unmarked linkages are phosphodiester. Other units and linkages are bracketed, terminal groups are in braces. A string of capitals states the bases alone. e = 2'-O-(2-methoxyethyl) (MOE); [5mC] = 5-methylcytosine; d = 2'-deoxy (DNA)

Experiments:
mir-21 miRNA = assay: pGL3-mir-21 sensor luciferase assay in HeLa cells; assay type: cell-based, human; details: Table 50, pGL3-mir-21 sensor-expressing HeLa cells, normalized to pRL-CMV
Description: In order to assess the ability of miRNAs to bind predicted miRNA binding sites and regulate the expression of the luciferase reporter, in some embodiments, expression systems based on the pGL3-Control (Promega Corp., Madison Wis.) reporter vector and comprising either a mir-15a, mir-21, or a mir-23b miRNA binding site were developed and used in transient transfections of HeLa cells to determine whether the endogenous mir-15a, mir-21, or mir-23b miRNAs, respectively, could repress luciferase reporter gene expression.
The pGL3-mir-21 sensor plasmid was created by cloning the sequence ([…]; SEQ ID NO: 335), representing a sequence complementary to the mir-21 miRNA, into the Xba site of the pGL3-Control plasmid, placing the potential miRNA-binding site in the 3′UTR of the luciferase reporter. This reporter plasmid was used to transfect HeLa cells and it was observed that the endogenous mir-21 miRNA was able to inhibit luciferase expression from the pGL3-mir-21 sensor plasmid. Thus, to further evaluate the ability of the mir-21 miRNA to bind this target site encoded by the pGL3-mir-21 sensor plasmid, and to assess the ability of oligomeric compounds to interfere with mir-21-mediated silencing, pGL3-mir-21 sensor-expressing HeLa cells were treated with varying concentrations (10 nM or 50 nM) of the following oligomeric compounds: ISIS Number 327917 (SEQ ID NO: 335), a phosphorothioate uniform 2′-MOE oligomeric compound; ISIS Number 338697 ([…]; herein incorporated as SEQ ID NO: 524), a uniform 2′-MOE oligomeric compound targeting the mir-21 pri-miRNA molecule; and ISIS Number 328415 (SEQ ID NO: 524), a 2′-MOE 5-10-5 gapmer oligomeric compound targeting the mir-21 pri-miRNA. The uniform 2′-MOE phosphorothioate oligomeric compound ISIS Number 327901 (SEQ ID NO: 319) targeting an unrelated miRNA (mir-143) was used as a negative control. The data are the average of three trials and are presented in Table 44 as percent untreated control (luciferase plasmid only, not treated with oligomeric compound) luciferase expression, normalized to pRL-CMV levels.
In one embodiment, the oligomeric compounds ISIS Number 327917 (SEQ ID NO: 335), the phosphorothioate uniform 2′-MOE targeting mature mir-21; ISIS Number 358768 (SEQ ID NO: 918), the uniform 2′-MOE targeting the mir-21 pri-miRNA which stimulated the largest increase in pri-miRNA expression levels by real time quantitative RT-PCR; and ISIS Number 345382 (SEQ ID NO: 335), the 5-10-7 phosphorothioate 2′-MOE gapmer targeting mature mir-21 were selected for dose response studies in HeLa cells using the luciferase reporter system described in Example 27. ISIS Number 342683 (SEQ ID NO: 790), representing the scrambled nucleotide sequence of an unrelated PTP1B antisense oligonucleotide, was used as a negative control. HeLa cells expressing the pGL3-mir-21 sensor plasmid (described in Example 27) were treated with 1.9, 5.5, 16.7, and 50 nM of these oligomeric compounds, to assess the ability of oligomeric compounds to interfere with endogenous mir-21-mediated silencing of the pGL3-mir-21 sensor plasmid. The data are presented in Table 50 as percent untreated control (luciferase plasmid only, not treated with oligomeric compound) luciferase expression, normalized to pRL-CMV levels.

IL-6 mRNA = IL-6 mRNA in LPS-activated primary murine macrophages; assay type: cell-based, mouse; details: average of 3 treatments
Method: To investigate the role of miRNAs in the immune response, oligomeric compounds of the present invention targeting miRNAs were tested for their effects upon lipopolysaccharide (LPS)-activated primary murine macrophages. Macrophages participate in the immune response, for example, in the recognition and phagocytosis of microorganisms, including bacteria. Interferon-gamma (IFN-gamma) released by helper T cells is one type of signal required for macrophage activation, and LPS can serve as an additional stimulus. LPS is a component of the gram-negative bacterial cell wall and acts as an agonist for toll-like receptor 4 (TLR4), the primary LPS receptor expressed by macrophages. The proinflammatory cytokines interleukin-12 (IL-12) and interleukin-6 (IL-6) are induced by LPS treatment of macrophages, thus the expression of the mRNAs encoding these cytokines was used to evaluate the response of macrophages to LPS following treatment with oligomeric compounds targeting miRNAs.
Macrophages were isolated as follows. Female C57B1/6 mice (Charles River Laboratories, Wilmington, Mass.) were injected intraperitoneally with 1 ml 3% thioglycollate broth (Sigma-Aldrich, St. Louis, Mo.), and peritoneal macrophage cells were isolated by peritoneal lavage 4 days later. The cells were plated in 96-well plates at 40,000 cells/well for one hour in serum-free RPMI adjusted to contain 10 mM HEPES (Invitrogen Life Technologies, Carlsbad, Calif.), allowed to adhere, then non-adherent cells were washed away and the media was replaced with RPMI containing 10 mM HEPES, 10% FBS and penicillin/streptomycin (“complete” RPMI; Invitrogen Life Technologies, Carlsbad, Calif.).
Oligomeric compounds were introduced into the cells using the non-liposomal transfection reagent FuGENE 6 Transfection Reagent (Roche Diagnostics Corp., Indianapolis, Ind.). Oligomeric compound was mixed with FuGENE 6 in 1 mL of serum-free RPMI to achieve a concentration of 10 μL FuGENE per 1000 nM oligomeric compound. The oligomeric compound/FuGENE complex was allowed to form at room temperature for 20 minutes. This mixture was diluted to the desired concentration of oligomeric compound by the addition of the appropriate volume of complete RPMI. The final ratio of FuGENE 6 to oligomeric compound was 1 μL of FuGENE 6 per 100 nM oligomeric compound. A volume of 100 μL of oligomeric compound/FuGENE/RPMI was added to each well of the 96-well plate in which the macrophages were cultured. Each oligomeric compound treatment was repeated in triplicate.
Following oligomeric compound treatment, cells were stimultated with LPS. Cells were cultured in the presence of the transfection complex for approximately 24 to 28 hours at 37° C. and 5% CO2, after which the medium containing the transfection complex was removed from the cells, and complete RPMI containing 100 ng/mL LPS (Sigma-Aldrich Corp., St. Louis, Mo.) was added to the cells for a period of approximately 24 hours. Control samples included (1) cells receiving no oligomeric compound, stimulated with LPS and (2) cells receiving neither oligomeric compound nor LPS treatment.
In another embodiment, following oligomeric compound treatment, cells were first activated by IFN-gamma, to amplify the response to LPS. Cells were cultured in the presence of the transfection complex for approximately 24 hours at 37° C. and 5% CO2, at which point the medium containing the transfection complex was removed from the cells, and complete RPMI containing 100 ng/mL recombinant mouse IFN-gamma (R&D Systems, Minneapolis, Minn.) was added to the cells. After the 4 hour treatment with INF-gamma, cells were treated with 100 ng/mL LPS for approximately 24 hours. Control samples included (1) cells receiving no oligomeric compound, stimulated with LPS and (2) cells receiving neither oligomeric compound nor LPS treatment. […]

IL-12 mRNA = IL-12 mRNA in LPS-activated primary murine macrophages; assay type: cell-based, mouse; details: LPS, average of 3 treatments
mir-21 pri-miRNA = mir-21 pri-miRNA expression in HeLa cells (real-time RT-PCR); assay type: cell-based, human; details: HeLa cells, 100 nM, real-time RT-PCR
Method: In one embodiment, the expression of mir-21 (noted to be expressed at high levels in HeLa cells) was assessed in cells treated with oligomeric compounds. Using the transfection methods previously described, HeLa cells were treated with 100 nM of the uniform 2′-MOE oligomeric compound ISIS Number 327917 (SEQ ID NO: 335) targeting the mir-21 mature miRNA. Total RNA was isolated by lysing cells in 1 mL TRIZOL™ (Invitrogen) using the manufacturer's recommended protocols. […] Real-time RT-PCR analysis was also performed on HeLa cells treated with ISIS 327917 using a primer/probe set specific for the mir-21 pri-miRNA molecule [forward primer=ISIS 339332 ([…]; herein incorporated as SEQ ID NO.: 911), reverse primer-ISIS 339333 (TCGACTGGTGTTGCCATGA; herein incorporated as SEQ ID NO.: 912), and probe=ISIS 339334 ([…]; herein incorporated as SEQ ID NO.: 913)]. Total RNA was quantified using RiboGreen™ RNA quantification reagent (Molecular Probes, Inc. Eugene, Oreg.), expression levels observed for the target were normalized to 5.8S rRNA, and values were expressed relative to an untreated control (UTC).
Using the real-time RT-PCR methods, the expression levels of the mir-21 pri-miRNA were compared in HeLa cells treated with this nested series of uniform 2′-MOE oligomeric compounds, targeting and spanning the entire length of the mir-21 pri-miRNA. ISIS Number 358768 (SEQ ID NO: 918) targets a region flanking the predicted 5′ Drosha cleavage site in the mir-21 pri-miRNA. ISIS Number 358777 (SEQ ID NO: 927) targets a region spanning the 3′ Drosha cleavage site in the mir-21 pri-miRNA. ISIS 358779 (SEQ ID NO: 929) targets a region flanking the predicted 3′ Drosha cleavage site in the mir-21 pri-miRNA. Additionally, oligomeric compounds ISIS 327917 (SEQ ID NO: 335), a uniform 2′-MOE compound targeting the mature mir-21 miRNA, and ISIS 345382 ([…]; SEQ ID NO: 335), a 5-10-7 phosphorothioate 2′-MOE gapmer targeting mir-21, were tested for comparison. Oligomeric compound ISIS 327863 ([…]; herein incorporated as SEQ ID NO: 936), a phosphorothioate 5-10-52′-MOE gapmer, was used as scrambled control. […] Total RNA was isolated by lysing cells in 1 mL TRIZOL™ (Invitrogen) using the manufacturer's recommended protocols. real-time RT-PCR analysis was performed using the primer/probe set specific for the mir-21 pri-miRNA molecule [forward primer=ISIS 339332 (SEQ ID NO.: 911), reverse primer-ISIS 339333 (SEQ ID NO.: 912), and probe=ISIS 339334 (SEQ ID NO.: 913)]. Total RNA was quantified using RiboGreen™ RNA quantification reagent (Molecular Probes, Inc. Eugene, Oreg.), expression levels observed for each target were normalized to 5.8S rRNA, and values were expressed relative to the untreated control (UTC). Effects on expression of the mir-21 pri-miRNA molecule resulting from treatment of HeLa cells with these uniform 2′-MOE oligomeric compounds is expressed as a percentage of RNA levels in untreated control cells.

342683 (antisense CCTTCCCTGAAGGTTCCTCCTT; scrambled control, further chemistry not given here) [compound 342683]
luciferase expression % UTC (mir-21 miRNA; 1.9 nM): 127 % UTC | luciferase expression % UTC (mir-21 miRNA; 5.5 nM): 171 % UTC | luciferase expression % UTC (mir-21 miRNA; 16.7 nM): 104 % UTC | luciferase expression % UTC (mir-21 miRNA; 50 nM): 108 % UTC | IL-6 mRNA expression, % UTC (IL-6 mRNA; 75 nM, +IFN): 115 % UTC | IL-6 mRNA expression, % UTC (IL-6 mRNA; 75 nM, −IFN): 135 % UTC | IL-6 mRNA expression, % UTC (IL-6 mRNA; 150 nM, +IFN): 86 % UTC | IL-6 mRNA expression, % UTC (IL-6 mRNA; 150 nM, −IFN): 161 % UTC | IL-6 mRNA expression, % UTC (IL-6 mRNA; 300 nM, +IFN): 110 % UTC | IL-6 mRNA expression, % UTC (IL-6 mRNA; 300 nM, −IFN): 156 % UTC | IL-6 mRNA expression, % UTC (IL-6 mRNA; 600 nM, +IFN): 149 % UTC | IL-6 mRNA expression, % UTC (IL-6 mRNA; 600 nM, −IFN): 311 % UTC | IL-12 mRNA expression, % UTC (IL-12 mRNA; 75 nM, +IFN): 92 % UTC | IL-12 mRNA expression, % UTC (IL-12 mRNA; 75 nM, −IFN): 121 % UTC | IL-12 mRNA expression, % UTC (IL-12 mRNA; 150 nM, +IFN): 76 % UTC | IL-12 mRNA expression, % UTC (IL-12 mRNA; 150 nM, −IFN): 165 % UTC | IL-12 mRNA expression, % UTC (IL-12 mRNA; 300 nM, +IFN): 65 % UTC | IL-12 mRNA expression, % UTC (IL-12 mRNA; 300 nM, −IFN): 147 % UTC | IL-12 mRNA expression, % UTC (IL-12 mRNA; 600 nM, +IFN): 64 % UTC | IL-12 mRNA expression, % UTC (IL-12 mRNA; 600 nM, −IFN): 130 % UTC

345382 (TCAACATCAGTCTGATAAGCTA; sugars from the 5' end e5 d10 e7, all phosphorothioate, methylation of C not given here) [compound 345382]
luciferase expression % UTC (mir-21 miRNA; 1.9 nM): 101 % UTC | luciferase expression % UTC (mir-21 miRNA; 5.5 nM): 135 % UTC | luciferase expression % UTC (mir-21 miRNA; 16.7 nM): 117 % UTC | luciferase expression % UTC (mir-21 miRNA; 50 nM): 95 % UTC | mir-21 pri-miRNA expression % UTC (mir-21 pri-miRNA): 119 % UTC

358768 (eA*eG*eG*eT*eG*eG*eT*eA*e[5mC]*eA*eG*e[5mC]*e[5mC]*eA*eT*eG*eG*eA*eG*eA) [compound 358768]
luciferase expression % UTC (mir-21 miRNA; 1.9 nM): 103 % UTC | luciferase expression % UTC (mir-21 miRNA; 5.5 nM): 163 % UTC | luciferase expression % UTC (mir-21 miRNA; 16.7 nM): 146 % UTC | luciferase expression % UTC (mir-21 miRNA; 50 nM): 118 % UTC | mir-21 pri-miRNA expression % UTC (mir-21 pri-miRNA): 987 % UTC
